Several values for one entry are separate records, joined by “and”; a condition that tells them apart may be missing. Identical values can stand only once. Like-named read-outs stand apart in the source and are kept apart here.
Columns and labels:
Human PiT1 = target: T1, Human PiT1 (Homo sapiens, UniProt Q8WUM9); experiment: 33P-phosphate uptake in CHO cells over-expressing human PiT1; type: cell-based
T1 construct: Full Length cDNA Cloning and Generation of Cell Lines Over-Expressing Human NPT2a, NPT2c, Pit1, and Pit2; host or cells: CHO-K1, pcDNA3.1(+), constitutive
T1 sequence (Q8WUM9 1-679): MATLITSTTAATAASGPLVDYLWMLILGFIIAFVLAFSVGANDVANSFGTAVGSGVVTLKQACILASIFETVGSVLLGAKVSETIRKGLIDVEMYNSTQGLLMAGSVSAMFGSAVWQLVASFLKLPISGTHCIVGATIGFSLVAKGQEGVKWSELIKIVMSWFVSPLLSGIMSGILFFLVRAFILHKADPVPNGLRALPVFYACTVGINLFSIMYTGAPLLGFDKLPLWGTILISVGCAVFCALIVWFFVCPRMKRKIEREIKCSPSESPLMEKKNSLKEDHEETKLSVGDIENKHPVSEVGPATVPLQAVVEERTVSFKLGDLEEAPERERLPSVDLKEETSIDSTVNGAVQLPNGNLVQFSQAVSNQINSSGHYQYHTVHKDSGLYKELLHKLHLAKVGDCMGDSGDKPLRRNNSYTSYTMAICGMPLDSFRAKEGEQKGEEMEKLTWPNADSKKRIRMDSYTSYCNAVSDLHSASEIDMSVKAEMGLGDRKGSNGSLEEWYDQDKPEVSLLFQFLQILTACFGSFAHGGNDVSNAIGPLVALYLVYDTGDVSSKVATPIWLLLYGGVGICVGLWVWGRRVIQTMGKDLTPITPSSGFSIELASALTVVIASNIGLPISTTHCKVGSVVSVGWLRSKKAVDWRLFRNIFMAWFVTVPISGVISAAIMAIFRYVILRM
Protocol: T‐Rex™ Chinese Hamster Ovary cells (CHO; Thermo Fisher Scientific) stably expressing human, mouse, or rat NPT2b under a tetracycline‐inducible promoter were generated using standard cDNA transfection and clone selection procedures (see Supporting Information). Cells were plated in 96‐well CytoStar‐T® scintillating microplates and were incubated overnight in growth media plus 100 ng/ml of tetracycline to induce expression of NPT2b. The next day, cells were washed 3 times with 200 µl assay buffer (137 mM NaCl, 5.4 mM KCl, 2.8 mM CaCl2, 1.2 mM MgSO4, and 14 mM Tris‐HCl buffer, pH 7.5). LY3358966 serially diluted 1‐to‐3 in DMSO was added to cells with assay buffer. An equal volume of H3 ^33PO4 (PerkinElmer) in assay buffer supplemented with 5 µM potassium phosphate was then added to initiate radiolabeled phosphate (^33P‐phosphate) uptake. […] The plate was immediately read on a Wallac MicroBeta Trilux liquid scintillation counter. Percent inhibition at all concentrations tested was calculated, and IC50 values were then determined using a 4‐parameter logistic curve fitting equation.
Similar methods were used to measure the effects of LY3358966 on other transporters of interest, except that constitutive promoters were used to generate CHO cells over‐expressing human PiT1 and PiT2. The ^33P‐phosphate uptake was measured after 45 min at 20°C for the NPT2a, NPT2c, PiT1, and PiT2 assays. […]

[1] = Pharmacokinetic study in mice; type: in vivo, mouse; details: for bioavailability: po
Protocol: Male CD‐1 male mice were orally dosed with 1, 3, or 10 mg/kg API of LY3358966 SDD dissolved in water or were IV dosed with 1 mg/kg LY3358966 formulated in 25% dimethylacetamide, 15% ethanol, 10% propylene glycol, 25% 2‐pyrrolidone, and 25% water. Each dose group contained six animals. Three animals were bled at 0.25, 0.5, 1, 2, 4, 8, 12, and 24 h, with each animal being bled at alternate time points. Plasma drug levels were determined by HPLC/MS. The unbound fraction of LY3358966 in plasma was determined with equilibrium dialysis and LC‐MS/MS.

[2] = system: intestinal phosphate absorption; experiment: Recovery of radiolabeled phosphate in feces of rats; type: in vivo, rat; details: LY3358966 10 mg/kg
Protocol: Male Sprague Dawley rats, 260–287 g for the first study and 274–362 g for the second study, were fasted for 4 h (the first 4 h of the light cycle) then dosed with placebo, a 50 or 150 mg/kg sevelamer HCl water dispersion, LY3358966 SDD (10 mg/kg API) dissolved in water, or a combination of LY3358966 SDD and sevelamer HCl. Fifteen minutes later, the animals were dosed with radiolabeled phosphate as described above. In the first study, the animals were given free access to food, then feces were collected at 6, 24, and 48 h post radiolabeled phosphate dose. In the second study, the animals were fasted an additional 4 h, then feces, stomach, small intestine, and large intestine were individually collected. The gastrointestinal tract tissues and feces were digested overnight at 37°C in 1 N NaOH, and the recovered radioactivity was determined.

[3] = across all dose groups, from unbound fraction 0.005
[4] = male, CD-1, mouse, plasma, IV 1 mg/kg
[5] = male, CD-1, mouse, plasma, PO 1 mg/kg
[6] = male, CD-1, mouse, plasma, PO 3 mg/kg
[7] = male, CD-1, mouse, plasma, PO 10 mg/kg

- IC50 (Human PiT1; 45 min at 20°C): > 100 µM
- Selectivity (Human PiT1; ratio of IC50 of human PiT1 assay to that of human NPT2b assay): >3086
- C max of unbound LY3358966 [1, 3]: < 1 nM
- plasma AUC of unbound LY3358966 [1, 3]: < 0.002 µM·h
- AUC [1, 4]: 0.323 µM·h
- half-life [1, 4]: 300 min
- Cmax [1, 5]: 25 nM
- Tmax [1, 5]: 24 min
- AUC ([1]; male, CD-1, mouse, plasma, PO 1 mg/kg, SDD dissolved in water): 0.039 µM·h
- Cmax [1, 6]: 50 nM
- Tmax [1, 6]: 24 min
- AUC ([1]; male, CD-1, mouse, plasma, PO 3 mg/kg, SDD dissolved in water): 0.096 µM·h
- Cmax [1, 7]: 83 nM
- Tmax [1, 7]: 24 min
- AUC ([1]; male, CD-1, mouse, plasma, PO 10 mg/kg, SDD dissolved in water): 0.284 µM·h
- bioavailability ([1]; male, CD-1, mouse, plasma, 1 mg/kg, PO 1 mg/kg, read-out: F (bioavailability)): 12%
- bioavailability ([1]; male, CD-1, mouse, plasma, 3 mg/kg, PO 3 mg/kg, read-out: F (bioavailability)): 10%
- bioavailability ([1]; male, CD-1, mouse, plasma, 10 mg/kg, PO 10 mg/kg, read-out: F (bioavailability)): 9%
- bioavailability ([1]; male, CD-1, mouse, plasma, 10 mg/kg, PO 1, 3 and 10 mg/kg, read-out: oral bioavailability F): 9 to 12%
- NPT2b inhibitor mediated recovery in feces (difference between placebo and LY3358966-treated groups) ([2]; 48 h, 10 mg/kg): 5.3% and 5.34%
Compound: CC1(C)CN(C(=O)NCCCCO)CCN1Cc1cccc(C(=O)Nc2sc3c(c2C(=O)Nc2cc(F)c(CCc4ccc(C(=O)O)cc4)c(F)c2)CCCC3)c1 [LY3358966, 4‐[2‐[2,6‐difluoro‐4‐[[2‐[[3‐[[4‐(4‐hydroxybutylcarbamoyl)‐2,2‐dimethyl‐piperazin‐1‐yl]methyl]benzoyl]amino]‐4,5,6,7‐tetrahydrobenzothiophene‐3‐carbonyl]amino]phenyl]ethyl]benzoic acid]
- 33P Recovered in Feces (0-6 hrs), Mean ± SEM [2]: 0.23 ± 0.19%
- 33P Recovered in Feces (6-24 hrs), Mean ± SEM [2]: 16.62 ± 1.04%
- 33P Recovered in Feces (24-48 hrs), Mean ± SEM [2]: 1.44 ± 0.14%
- 33P Recovered in Feces Total (0-48 hrs), Mean ± SEM ([2]; 10 mg/kg): 18.29 ± 1.04%
